The source of these data is patent publication US9096560B2, “5-heterocyclylalkyl-3-hydroxy-2-phenylcyclopent-2-enones as herbicides” (Syngenta Limited, priority 2008, dated 2015).

Holding throughout (format): in vivo
Assay [1] has as its system Lolium perenne (LOLPE). As to the kind of experiment: Example B pre-emergence herbicidal test, LOLPE. The settings on record: Lolium perenne, 312 h, rate 250 g/ha, evaluated after 13 days, 100=total damage to plant, 0=no damage to plant. The procedure, abridged:
(§1)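 Pre-emergence spray one day after sowing; vehicle acetone/water (50:50), 0.5% Tween 20. Percent damage (0 = no effect, 100 = plant killed) recorded 13 days later.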

In assay [2] the test system is Alopecurus myosuroides (ALOMY). Nature of the assay: Example B pre-emergence herbicidal test, ALOMY. The settings on record: Alopecurus myosuroides, 312 h, rate 250 g/ha, evaluated after 13 days, 100=total damage to plant, 0=no damage to plant. The procedure, abridged: as §1
In assay [3] the test system is Echinochloa crus-galli (ECHCG). Nature of the assay: Example B pre-emergence herbicidal test, ECHCG. To be noted: Echinochloa crus-galli, 312 h, rate 250 g/ha, evaluated after 13 days, 100=total damage to plant, 0=no damage to plant. In short, it runs like this:
as §1

The subject of assay [4] is Avena fatua (AVEFA). As to the kind of experiment: Example B pre-emergence herbicidal test, AVEFA. The settings on record: Avena fatua, 312 h, rate 250 g/ha, evaluated after 13 days, 100=total damage to plant, 0=no damage to plant. The procedure, abridged: as §1
Assay [5] deals with Lolium perenne (LOLPE). As to the kind of experiment: Example B post-emergence herbicidal test, LOLPE. To be noted: Lolium perenne, 312 h, rate 250 g/ha, evaluated after 13 days, scale 0-100, read-out: Post-emergence activity LOLPE (100=total damage to plant; 0=no damage to plant). In short, it runs like this: (§2)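 Foliar application to 8-day-old pot-grown seedlings in a glasshouse (24/16 °C, 14 h photoperiod, 65% humidity). Spray solution was derived from an acetone/water (50:50) formulation with 0.5% Tween 20. Injury was assessed 13 days later on a 0–100 scale.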

For assay [6], the system named is Alopecurus myosuroides (ALOMY). As to the kind of experiment: Example B post-emergence herbicidal test, ALOMY. To be noted: Alopecurus myosuroides, 312 h, rate 250 g/ha, evaluated after 13 days, scale 0-100, read-out: Post-emergence activity ALOMY (100=total damage to plant; 0=no damage to plant). In short, it runs like this: as §2
The subject of assay [7] is Echinochloa crus-galli (ECHCG). Nature of the assay: Example B post-emergence herbicidal test, ECHCG. To be noted: Echinochloa crus-galli, 312 h, rate 250 g/ha, evaluated after 13 days, scale 0-100, read-out: Post-emergence activity ECHCG (100=total damage to plant; 0=no damage to plant). In short, it runs like this:
as §2

For assay [8], the system named is Avena fatua (AVEFA). As to the kind of experiment: Example B post-emergence herbicidal test, AVEFA. The settings on record: Avena fatua, 312 h, rate 250 g/ha, evaluated after 13 days, scale 0-100, read-out: Post-emergence activity AVEFA (100=total damage to plant; 0=no damage to plant). The procedure, abridged: as §2
The test system of assay [9] is Winter Wheat variety 'Hereward'. As to the kind of experiment: Example C crop damage test on Winter Wheat, post-emergence, no safener. To be noted: Triticum aestivum, 312 h, rate 250 g/ha, evaluated after 13 days, read-out: Winter Wheat (Hereward) damage (100=total damage to plant; 0=no damage to plant). The procedure:
Seeds of the Winter Wheat variety ‘Hereward’ were sown in standard soil in pots. After 8 days cultivation under controlled conditions in a glasshouse (at 24/16° C., day/night; 14 hours light; 65% humidity), the plants were sprayed with an aqueous spray solution derived from the formulation of the technical active ingredient in acetone/water (50:50) solution containing 0.5% Tween 20 (polyoxyethelyene sorbitan monolaurate, CAS RN 9005-64-5). The test plants were then grown in a glasshouse under controlled conditions in a glasshouse (at 24/16° C., day/night; 14 hours light; 65% humidity) and watered twice daily. After 13 days for pre and post-emergence, the test was evaluated (100=total damage to plant; 0=no damage to plant).

For assay [10], the system named is Winter Wheat variety 'Hereward' seed treated with cloquintocet mexyl. Nature of the assay: Example C crop damage test on Winter Wheat seed treated with safener cloquintocet mexyl, post-emergence. The settings on record: rate 250 g/ha, seed treated with cloquintocet mexyl 0.5 grams per kilogram of dry seed, evaluated after 13 days. The procedure: Seeds of the Winter Wheat variety ‘Hereward’ were seed treated with a wettable powder formulation of the cereal herbicide safener, cloquintocet mexyl, at a rate of 0.5 grams per kilogram of dry seed prior to the initiation of glasshouse testing. One seed was sown per 1.5 inch plastic pot into a sandy loam soil at a depth of 1 cm, 8 days prior to application of the test compounds and was watered and grown under controlled conditions in a glasshouse (at 24/16° C., day/night; 14 hours light; 65% humidity). The plants were sprayed Post-emergence with an aqueous spray solution derived from the formulation of the technical active ingredient in acetone/water (50:50) solution containing 0.5% Tween 20 (polyoxyethelyene sorbitan monolaurate, CAS RN 9005-64-5). The test plants were then grown in a glasshouse under controlled conditions in a glasshouse (at 24/16° C., day/night; 14 hours light; 65% humidity) and watered twice daily. After 13 days for pre and post-emergence, the test was evaluated (100=total damage to plant; 0=no damage to plant).

Each structure is given as a SMILES string.

Turning to `Cc1cc(C)c(C2C(=O)C/C(=C\C3CCCOC3)C2=O)c(C)c1` (centres unmarked) [Compound T14], the pest or weed control at 250 g/ha (in the assay on Lolium perenne (LOLPE) [1]; in assay [2]; in [3]; in the assay on Avena fatua (AVEFA) [4]; in the assay with Lolium perenne (LOLPE) [5]; in assay [6]) was 100% each time. For the same compound, the pest or weed control at 250 g/ha (in [7]; in the assay on Avena fatua (AVEFA) [8]) was 100% each time. Moreover, the crop damage to winter wheat at 250 g/ha in assay [9] amounted to 80%. The “Winter Wheat (Hereward) + cloquintocet mexyl damage (100=total damage to plant; 0=no damage to plant)” value in [10] turned out to be 60.

With `Cc1cc(C)c(C2C(=O)CC(CC3CCCOC3)C2=O)c(C)c1` (centres unmarked) [Compound T16], the pest or weed control at 250 g/ha in the assay with Lolium perenne (LOLPE) [1] stood at 100%; in [2], 100%; in assay [3], 100%; in the assay with Avena fatua (AVEFA) [4], 80%; in the assay on Lolium perenne (LOLPE) [5], 100%; in [6], 100%. Also, the pest or weed control at 250 g/ha (in assay [7]; in the assay with Avena fatua (AVEFA) [8]) was 100% throughout. In assay [9], the crop damage to winter wheat at 250 g/ha worked out at 80%. Besides, the “Winter Wheat (Hereward) + cloquintocet mexyl damage (100=total damage to plant; 0=no damage to plant)” value in assay [10] is given as 20.

On to `Cc1cc(C)c(C2C(=O)C/C(=C\C3CCOC3)C2=O)c(C)c1` (centres unmarked) [Compound T17], for which the pest or weed control at 250 g/ha is 100% in the assay with Lolium perenne (LOLPE) [1]; 100% in [2]; 100% in [3]; 100% with Avena fatua (AVEFA) [4]; 100% with Lolium perenne (LOLPE) [5]; 90% in [6]. Also, the pest or weed control at 250 g/ha (in [7]; in the assay with Avena fatua (AVEFA) [8]) was 100% in each case. The crop damage to winter wheat at 250 g/ha in assay [9] was 70%. The “Winter Wheat (Hereward) + cloquintocet mexyl damage (100=total damage to plant; 0=no damage to plant)” value in [10] is reported as 50.

Regarding `Cc1cc(C)c(C2C(=O)C/C(=C\C3CCOC(C)(C)C3)C2=O)c(C)c1` (centres unmarked) [Compound T37], the pest or weed control at 250 g/ha with Lolium perenne (LOLPE) [1] amounted to 100%; in assay [2] it was 100%; in assay [3], 100%; in the assay on Avena fatua (AVEFA) [4], 90%; in the assay with Lolium perenne (LOLPE) [5], 100%; in [6], 90%. In addition, the pest or weed control at 250 g/ha (in [7]; with Avena fatua (AVEFA) [8]) was 100% in each case. For the same compound, in [9], the crop damage to winter wheat at 250 g/ha was found to be 80%. Besides, the “Winter Wheat (Hereward) + cloquintocet mexyl damage (100=total damage to plant; 0=no damage to plant)” value in assay [10] is listed as 70.

For the compound `Cc1cc(C)c(C2C(=O)CC(CC3CCOC(C)(C)C3)C2=O)c(C)c1` (centres unmarked) [Compound T39], the pest or weed control at 250 g/ha amounted to 100% in the assay with Lolium perenne (LOLPE) [1]; 100% in assay [2]; 100% in [3]; 100% in the assay with Avena fatua (AVEFA) [4]; 100% with Lolium perenne (LOLPE) [5]; 90% in [6]. In addition, the pest or weed control at 250 g/ha (in assay [7]; with Avena fatua (AVEFA) [8]) was 100% each time. Also, the crop damage to winter wheat at 250 g/ha in assay [9] came out at 80%. Besides, the “Winter Wheat (Hereward) + cloquintocet mexyl damage (100=total damage to plant; 0=no damage to plant)” value in assay [10] was 70.

In the case of `Cc1cc(C)c(C2C(=O)CC(CC3COCCO3)C2=O)c(C)c1` (centres unmarked) [Compound T40], the pest or weed control at 250 g/ha turned out to be 100% in the assay on Lolium perenne (LOLPE) [1]; 100% in [2]; 100% in [3]; 80% in the assay with Avena fatua (AVEFA) [4]; 100% with Lolium perenne (LOLPE) [5]; 80% in [6]. The values for the pest or weed control at 250 g/ha (in assay [7]; with Avena fatua (AVEFA) [8]) were 100% and 90%, respectively. Also, the crop damage to winter wheat at 250 g/ha in assay [9] was determined as 60%. Besides, the “Winter Wheat (Hereward) + cloquintocet mexyl damage (100=total damage to plant; 0=no damage to plant)” value in assay [10] is on record as 10.

For `Cc1cc(C)c(C2C(=O)CC(CC3CCN(C(=O)c4ccccc4)C3)C2=O)c(C)c1` (centres unmarked) [Compound T41], the pest or weed control at 250 g/ha in the assay on Lolium perenne (LOLPE) [1] worked out at 90%; in assay [2] it was 70%; in assay [3] it was 100%; in the assay with Avena fatua (AVEFA) [4], 90%; in the assay with Lolium perenne (LOLPE) [5] it was 100%; in [6] it was 100%. For the same compound, the pest or weed control at 250 g/ha (in assay [7]; with Avena fatua (AVEFA) [8]) was 100% throughout. Further, the crop damage to winter wheat at 250 g/ha in assay [9] was 90%. In addition, the “Winter Wheat (Hereward) + cloquintocet mexyl damage (100=total damage to plant; 0=no damage to plant)” value in assay [10] was 80.

On to `Cc1cc(-c2ccc(Cl)cc2)cc(C)c1C1C(=O)C/C(=C\C2CCOCC2)C1=O` (centres unmarked) [Compound T62], for which the pest or weed control at 250 g/ha is 100% in the assay with Lolium perenne (LOLPE) [1]; 80% in [2]; 100% in assay [3]; 70% with Avena fatua (AVEFA) [4]; 90% in the assay on Lolium perenne (LOLPE) [5]; 90% in [6]. Further, the pest or weed control at 250 g/ha (in assay [7]; in the assay with Avena fatua (AVEFA) [8]) was 100% in each case. For the same compound, the crop damage to winter wheat at 250 g/ha in assay [9] turned out to be 80%. In addition, the “Winter Wheat (Hereward) + cloquintocet mexyl damage (100=total damage to plant; 0=no damage to plant)” value in assay [10] stood at 70.

With `Cc1cc(-c2ccc(Cl)cc2)cc(C)c1C1C(=O)CC(CC2CCOCC2)C1=O` (centres unmarked) [Compound T64], the pest or weed control at 250 g/ha was 100% in the assay with Lolium perenne (LOLPE) [1]; 50% in assay [2]; 100% in assay [3]; 90% with Avena fatua (AVEFA) [4]; 90% in the assay on Lolium perenne (LOLPE) [5]; 90% in [6]. The pest or weed control at 250 g/ha (in assay [7]; with Avena fatua (AVEFA) [8]) was 100% in each case. Also, in assay [9], the crop damage to winter wheat at 250 g/ha turned out to be 80%. Further, the “Winter Wheat (Hereward) + cloquintocet mexyl damage (100=total damage to plant; 0=no damage to plant)” value in [10] is listed as 70.

As to `Cc1cc(-c2ccccc2)cc(C)c1C1C(=O)C/C(=C\C2CCOCC2)C1=O` (centres unmarked) [Compound T66], the pest or weed control at 250 g/ha in the assay on Lolium perenne (LOLPE) [1] is 80%; in assay [2] it was 90%; in [3], 100%; in the assay with Avena fatua (AVEFA) [4], 80%; with Lolium perenne (LOLPE) [5], 60%; in assay [6] it was 90%. The pest or weed control at 250 g/ha in [7] is 100%; in the assay on Avena fatua (AVEFA) [8] it was 90%. Moreover, the crop damage to winter wheat at 250 g/ha in assay [9] was found to be 50%. Besides, the “Winter Wheat (Hereward) + cloquintocet mexyl damage (100=total damage to plant; 0=no damage to plant)” value in assay [10] is 20.

With `Cc1cc(-c2ccccc2)cc(C)c1C1C(=O)CC(CC2CCOCC2)C1=O` (centres unmarked) [Compound T67], the pest or weed control at 250 g/ha stood at 100% in the assay with Lolium perenne (LOLPE) [1]; 90% in assay [2]; 100% in assay [3]; 90% in the assay with Avena fatua (AVEFA) [4]; 100% with Lolium perenne (LOLPE) [5]; 90% in assay [6]. For the same compound, the pest or weed control at 250 g/ha (in [7]; with Avena fatua (AVEFA) [8]) was 100% in each case. Moreover, in assay [9], the crop damage to winter wheat at 250 g/ha came to 70%. Also, in [10], the “Winter Wheat (Hereward) + cloquintocet mexyl damage (100=total damage to plant; 0=no damage to plant)” value stood at 30.
